# Assay results: paper PMC10600239, “Selective MCL-1 inhibitor ABBV-467 is efficacious in tumor models but is associated with cardiac troponin increases in patients” (Communications Medicine, 2023)
# Several values for one entry are separate records, joined by “and”; a condition that tells them apart may be missing. Equal entries are not always repeated.
# How the values were obtained:
# [1] = molecular target: T1, monkey MCL1 (Macaca mulatta, UniProt F7HUE9); test: TR-FRET binding assay, MCL-1 orthologs; set-up: species or system Monkey Macaca sp.
# T1 construct: rhesus monkey (iso4, NM_001 1089 3 7, AA 171-327); made in house; host or cells: E. coli BL21(DE3)-T1R
# T1 sequence (F7HUE9 171-327): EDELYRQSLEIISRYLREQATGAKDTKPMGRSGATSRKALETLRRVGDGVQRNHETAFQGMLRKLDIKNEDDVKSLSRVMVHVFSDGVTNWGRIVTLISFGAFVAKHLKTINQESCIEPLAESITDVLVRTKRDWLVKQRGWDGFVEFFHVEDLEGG
# Method: Binding affinities for MCL-1, BCL-2, BCL-XL, BCL-W, and BCL2-A1 were determined using a time-resolved fluorescence resonance energy transfer (FRET) assay. Test compounds were serially diluted in DMSO starting at […] (20× starting concentration; 100% DMSO followed by a 1:10 dilution of the compound DMSO plate into assay buffer); 10 µL of the compound in 10% DMSO was then transferred into a 384-well plate (low-volume Corning #3673 assay plate). Glutathione S-transferase (GST)-tagged recombinant BCL-2, BCL-XL, MCL-1, BCL-W, or BCL2-A1 protein (1 nM each) were mixed with 100 nM Oregon Green™-labeled f-BAK peptide probe and 1 nM Tb-labeled anti-GST antibody were mixed. Then 10 µL of a 2× protein/probe/antibody mix was added to each well of increasing concentrations of test compound in assay buffer (20 mM potassium phosphate, pH 7.6, 50 mM NaCl, 1 mM ethylenediaminetetraacetic acid disodium salt dihydrate, 0.05% pluronic acid F-68, 1 mM DL-dithiothreitol) at room temperature (final concentrations listed in Supplementary Table S2). […] Fluorescence was measured on the EnVision™ (Perkin Elmer) using a 340/35-nm excitation filter and 520/525- (F-Bak) and 495/510-nm (Tb-labeled anti-glutathione S-transferase [GST] antibody) emission filters. Dissociation constants were determined using Wang’s equation[35]. […]
# Amino acid sequence homology determined with NCBI BLAST (http://blast.ncbi.nlm.nih.gov). […]
# [2] = Phase 1 first-in-human study (NCT04178902): pharmacokinetics; assay type: in vivo
# Text: Other eligibility criteria included: Eastern Cooperative Oncology Group performance status ≤2, measurable disease as defined by International Myeloma Working Group (IMWG) consensus criteria, an echocardiogram with an ejection fraction ≥50%, and adequate hematologic, hepatic, and renal function. […] Safety evaluations included, but were not limited to, adverse event (AE) monitoring, physical examinations, vital sign measurements, electrocardiogram (ECG), cardiac enzyme monitoring, and clinical laboratory testing (hematology and chemistry) as a measure of safety and tolerability for the entire study duration. Parameters used to determine PK included maximum observed plasma concentration (Cmax), terminal elimination half-life (t1/2), area under the plasma concentration-time curve (AUC) from time 0 to time of last measurable concentration (AUCt), AUC from time 0 to infinity (AUC0-∞), and clearance using non-compartmental methods. […] Preliminary efficacy endpoints were overall response rate (ORR), clinical benefit rate (CBR), and duration of response (DOR) as evaluated per adapted IMWG[36] criteria for MM and per adapted International Working Group (IWG)[37] and European Leukemia Net (ELN)[38] criteria for AML. […]
# [3] = Cycle 1 day 1, dose level 0.32 mg/kg (only half of this dose given), N=2, individual values
# [4] = Cycle 1 day 15, 0.32 mg/kg, N=2, individual values
# [5] = Cycle 1 day 15, 0.53 mg/kg, N=2, individual values
smiles,measurement,setting,value
Cc1c(Cl)c2c(Cl)c(C)c1-c1c(-c3ccc(F)cc3)sc3ncnc(c13)O[C@@H](C(=O)O)Cc1cc(ccc1OCc1ccnc(-c3ccc(OC[C@H]4COCCO4)cc3)n1)OC[C@@H](CN1CCN(C)CC1)O2 [ABBV-467],Ki,[1],< 0.1 nM
same,CONC_NGML,"[2]; Cycle 1 Day 1, DOSE_MGKG 0.08, cohort 1, PKTIME 0.333333",157 ng/mL and 146 ng/mL
same,CONC_NGML,"[2]; Cycle 1 Day 1, DOSE_MGKG 0.08, cohort 1, PKTIME 0.5",198 ng/mL and 162 ng/mL
same,CONC_NGML,"[2]; Cycle 1 Day 1, DOSE_MGKG 0.16, cohort 2, PKTIME 0.5",344 ng/mL
same,CONC_NGML,"[2]; Cycle 1 Day 1, DOSE_MGKG 0.16, cohort 2, PKTIME 1",21.9 ng/mL
same,CONC_NGML,"[2]; Cycle 1 Day 1, DOSE_MGKG 0.16, cohort 2, PKTIME 1.5",17 ng/mL
same,CONC_NGML,"[2]; Cycle 1 Day 1, DOSE_MGKG 0.16, cohort 2, PKTIME 2.5",6.62 ng/mL
same,CONC_NGML,"[2]; Cycle 1 Day 1, DOSE_MGKG 0.265, cohort 3, PKTIME 0.333333",655 ng/mL and 470 ng/mL
same,CONC_NGML,"[2]; Cycle 1 Day 1, DOSE_MGKG 0.265, cohort 3, PKTIME 0.5",708 ng/mL and 613 ng/mL
same,CONC_NGML,"[2]; Cycle 1 Day 1, DOSE_MGKG 0.265, cohort 3, PKTIME 1.5",26.5 ng/mL and 26.6 ng/mL
same,CONC_NGML,"[2]; Cycle 1 Day 1, DOSE_MGKG 0.265, cohort 3, PKTIME 2.5",6.81 ng/mL and 11.1 ng/mL
same,CONC_NGML,"[2]; Cycle 1 Day 15, DOSE_MGKG 0.16, cohort 1, PKTIME 0.333333",297 ng/mL and 479 ng/mL
same,CONC_NGML,"[2]; Cycle 1 Day 15, DOSE_MGKG 0.16, cohort 1, PKTIME 1",46.8 ng/mL and 44.6 ng/mL
same,CONC_NGML,"[2]; Cycle 1 Day 15, DOSE_MGKG 0.16, cohort 1, PKTIME 1.5",14.6 ng/mL and 10.1 ng/mL
same,CONC_NGML,"[2]; Cycle 1 Day 15, DOSE_MGKG 0.32, cohort 2, PKTIME 0.333333",529 ng/mL
same,CONC_NGML,"[2]; Cycle 1 Day 15, DOSE_MGKG 0.53, cohort 3, PKTIME 0.166667",940 ng/mL
same,CONC_NGML,"[2]; Cycle 1 Day 15, DOSE_MGKG 0.53, cohort 3, PKTIME 0.333333",1430 ng/mL
same,CONC_NGML,"[2]; Cycle 1 Day 15, DOSE_MGKG 0.53, cohort 3, PKTIME 0.5",1510 ng/mL
same,CONC_NGML,"[2]; Cycle 1 Day 15, DOSE_MGKG 0.53, cohort 3, PKTIME 1.5",60.6 ng/mL
same,CONC_NGML,"[2]; Cycle 1 Day 15, DOSE_MGKG 0.53, cohort 3, PKTIME 2.5",26.3 ng/mL
same,CONC_NGML,"[2]; Cycle 1 Day 15, DOSE_MGKG 0.53, cohort 3, PKTIME 4.5",8.14 ng/mL
same,AUCinf,[2]; [3],309 ng·h/mL
same,AUCt,[2]; [3],306 ng·h/mL
same,CL,[2]; [3],8.62 mL/min/kg
same,Cmax,[2]; [3],344 ng/mL
same,t1/2,[2]; [3],34.4 min
same,AUCinf,[2]; [4],940 ng·h/mL and 350 ng·h/mL
same,AUCt,[2]; [4],346 ng·h/mL and 933 ng·h/mL
same,CL,[2]; [4],5.67 mL/min/kg and 15.2 mL/min/kg
same,Cmax,[2]; [4],1720 ng/mL and 646 ng/mL
same,Tmax,[2]; [4],45.0 min
same,t1/2,[2]; [4],23.0 min and 54.3 min
same,AUCinf,[2]; [5],1290 ng·h/mL
same,AUCt,[2]; [5],1280 ng·h/mL
same,CL,[2]; [5],6.83 mL/min/kg
same,Cmax,[2]; [5],1860 ng/mL
same,t1/2,[2]; [5],64.1 min
same,pharmacokinetics,[2]; human patients at the doses studied,linear pharmacokinetics
same,concentration at 0 h,"[2]; human, in vivo, 0.08 mg/kg, Cycle 1 Day 1, DOSE_MGKG 0.08, cohort 1, PKTIME 0, read-out: CONC_NGML",0 ng/mL
same,concentration at 20 min,"[2]; human, in vivo, 0.08 mg/kg, Cycle 1 Day 1, DOSE_MGKG 0.08, cohort 1, PKTIME 0.333333, read-out: CONC_NGML",132 ng/mL
same,concentration at 0.5 h,"[2]; human, in vivo, 0.08 mg/kg, Cycle 1 Day 1, DOSE_MGKG 0.08, cohort 1, PKTIME 0.5, read-out: CONC_NGML",252 ng/mL
same,concentration at 4.5 h,"[2]; human, in vivo, 0.08 mg/kg, Cycle 1 Day 1, DOSE_MGKG 0.08, cohort 1, PKTIME 4.5, read-out: CONC_NGML",0 ng/mL
same,concentration at […],"[2]; human, in vivo, 0.08 mg/kg, Cycle 1 Day 1, DOSE_MGKG 0.08, cohort 1, PKTIME 8.5, read-out: CONC_NGML",0 ng/mL
